In US11186618B2, “Dendritic-cell-targeted peptide, fusion peptide utilizing said peptide, and vaccine utilizing said fusion peptide” (The Research Foundation for Microbial Diseases of Osaka …, priority 2016, dated 2021):

Key:
Neuropilin-1 = Neuropilin-1 (Homo sapiens, UniProt O14786); conditions: reported so far; cited from earlier work
[1] = system: antigen-specific CD8^+ CTLs; test: Tetramer assay on regional lymph nodes, CD8+ CTL inducibility (Test Example 8); format: in vivo, mouse; conditions: co-administered with CpG oligodeoxynucleotide, 50 μg in terms of SL8 subcutaneously into the ears Day 0, lymph nodes Day 7
Procedure: A fusion peptide (SL8-FL4) was prepared by linking the N-terminus of the peptide consisting of the amino acid sequence of FL4 to the C-terminus of SL8 (SIINFEKL; SEQ ID NO: 40) which is an MHC class I epitope peptide in chicken ovalbumin (OVA). Specifically, the amino acid sequence of the fusion peptide is [Amino acid sequence of SL8 (SIINFEKL; SEQ ID NO: 40)]-[VSYKAIR; SEQ ID NO: 1]. The production method of the fusion peptide was the same as that of PspA-FL4 except that a DNA molecule encoding SL8 was used. In addition, each of peptide-fusion bodies (SL8-F8 and SL8-FL4Scr) in which the peptide was fused with SL8 was prepared using each of FL8 and the scramble peptide of FL4 (FL4Scr, amino acid sequence: YRSIVKA, SEQ ID NO: 41) in the same manner. […]
(§1) The tetramer assay was carried out as follows. Lymphocytes were recovered from the regional lymph nodes, were stained with fluorescently labeled antibodies against CD44 and CD8 and a fluorescently labeled tetramer recognizing the SL8 peptide presented on H-2K^b, then were analyzed using a flow cytometer.

EG7 cells = test: Tumor size in mice transplanted with EG7 cells (Test Example 9); format: in vivo, mouse; conditions: EG7 tumor bearing C57BL/6 mice
Procedure: In this test, whether the regression effect of cancer was observed by SL8-specific CD8^+ CTLs induced by SL8-FL4 was evaluated. In this test, EG7 cells (cancer cells expressing OVA protein in EL4 cells derived from thymoma of C57BL/6 mouse) were used as cancer cells. Specific test methods are as follows.
1 (10^6 EG7 cells were transplanted into the abdomen of 7-week old C57BL/6 mice to prepare tumor bearing mice. 50 μL of physiological saline containing 50 μg of SL8-FL4 in terms of SL8 amount and 50 μg of CpG oligodeoxynucleotide (K3 type, product name “K3 Et-Free”, product number “CN-65003” manufactured by GeneDesign Inc.) was administered subcutaneously into the ears of mice after EG7 cells were transplanted and the tumor diameter reached about 5 mm (about 5 days after transplantation). Thereafter, tumor size was measured over time while breeding the mice. In addition, similar tests were carried out with regard to the case where 50 μL of physiological saline containing 50 μg SL8 and 50 μg of CpG oligodeoxynucleotide was administered, and the case where only physiological saline was administered (control). Meanwhile, in these tests, five mice in each group were used.

[2] = system: antigen-specific CD8^+ CTLs; test: Tetramer assay after pulmonary administration (Test Example 13); format: in vivo, mouse; conditions: pulmonary administration Day 0 and Day 7 with 10 μg CpG oligodeoxynucleotide, Day 14
Procedure: as §1
40 μL of physiological saline containing 50 μg of SL8-FL4 in terms of SL8 amount and 10 μg of CpG oligodeoxynucleotide (K3 type, product name “K3 Et-Free”, product number “CN-65003” manufactured by GeneDesign Inc.) was pulmonarily administrated to 7-week old C57BL/6 mice on Day 0 and Day 7, regional lymph nodes, lung tissues and the spleen were collected on Day 14 and a tetramer assay was performed in the same manner as Test Example 8. In addition, similar tests were conducted with regard to the case where 40 μL of physiological saline containing 50 μg SL8 alone was pulmonarily administered, the case where 50 μL of physiological saline containing 50 μg SL8 and 10 μg of CpG oligodeoxynucleotide was pulmonarily administered, and the case where only physiological saline was pulmonarily administered (control). Meanwhile, in these tests, five mice in each group were used.

[3] = system: antigen-specific CD8^+ CTLs; test: Tetramer assay, pulmonary versus subcutaneous administration (Test Example 14); format: in vivo, mouse; conditions: Day 14
Procedure: as §1
In this study, CD8^+ cytotoxic T cells inducibility by pulmonary administration and that by subcutaneous administration were compared by using SL8-FL4. 40 μL of physiological saline containing 50 μg of SL8-FL4 in terms of SL8 amount and 10 μg of CpG oligodeoxynucleotide (K3 type, product name “K3 Et-Free”, product number “CN-65003” manufactured by GeneDesign Inc.) was pulmonarily or subcutaneously administered to 7-week old C57BL/6 mice on Day 0 and Day 7, regional lymph nodes and the spleen were collected on Day 14 and a tetramer assay was performed in the same manner as Test Example 8. In addition, a test was also carried out in the case where only physiological saline was subcutaneously administered in the same manner (control). Meanwhile, in these tests, five mice in each group were used.

[4] = system: antigen-specific CD8^+ CTLs; test: IFN-γ production by immune cells of regional lymph nodes, Kras G12D peptide (Test Example 10); format: in vivo, mouse; conditions: 50 μg as G12D-derived peptide with 10 μg CpG oligodeoxynucleotide, subcutaneously into the ears Day 0, lymph node cells Day 7, cultured 24 hours
Procedure: A fusion peptide (G12D-FL4) was prepared by linking the N-terminus of the peptide consisting of the amino acid sequence of FL4 to the C-terminus of a partial peptide of Kras containing G12D mutation (G12D-derived peptide; LVVVGADGV (SEQ ID NO: 42); the 6th to 14th amino acid sequence from the N-terminal side of Kras containing G12D mutation). Specifically, the amino acid sequence of the fusion peptide is [Partial sequence of Kras containing G12D mutation (LVVVGADGV; SEQ ID NO: 42)]-[VSYKAIR; SEQ ID NO: 1]. The production method of the fusion peptide was the same as that of PspA-FL4 except that a DNA molecule encoding the G12D-derived peptide was used.
50 μL of physiological saline containing 50 μg of G12D-FL4 in terms of the G12D-derived peptide amount and 10 μg of CpG oligodeoxynucleotide (K3 type, product name “K3 Et-Free”, product number “CN-65003” manufactured by GeneDesign Inc.) was administered subcutaneously into the ears of 7-week old C57BL/6 mice on Day 0, regional lymph nodes were collected on Day 7 and immune cells were recovered. […]

Chain of Neuropilin-1 (O14786 22-923, species assumed): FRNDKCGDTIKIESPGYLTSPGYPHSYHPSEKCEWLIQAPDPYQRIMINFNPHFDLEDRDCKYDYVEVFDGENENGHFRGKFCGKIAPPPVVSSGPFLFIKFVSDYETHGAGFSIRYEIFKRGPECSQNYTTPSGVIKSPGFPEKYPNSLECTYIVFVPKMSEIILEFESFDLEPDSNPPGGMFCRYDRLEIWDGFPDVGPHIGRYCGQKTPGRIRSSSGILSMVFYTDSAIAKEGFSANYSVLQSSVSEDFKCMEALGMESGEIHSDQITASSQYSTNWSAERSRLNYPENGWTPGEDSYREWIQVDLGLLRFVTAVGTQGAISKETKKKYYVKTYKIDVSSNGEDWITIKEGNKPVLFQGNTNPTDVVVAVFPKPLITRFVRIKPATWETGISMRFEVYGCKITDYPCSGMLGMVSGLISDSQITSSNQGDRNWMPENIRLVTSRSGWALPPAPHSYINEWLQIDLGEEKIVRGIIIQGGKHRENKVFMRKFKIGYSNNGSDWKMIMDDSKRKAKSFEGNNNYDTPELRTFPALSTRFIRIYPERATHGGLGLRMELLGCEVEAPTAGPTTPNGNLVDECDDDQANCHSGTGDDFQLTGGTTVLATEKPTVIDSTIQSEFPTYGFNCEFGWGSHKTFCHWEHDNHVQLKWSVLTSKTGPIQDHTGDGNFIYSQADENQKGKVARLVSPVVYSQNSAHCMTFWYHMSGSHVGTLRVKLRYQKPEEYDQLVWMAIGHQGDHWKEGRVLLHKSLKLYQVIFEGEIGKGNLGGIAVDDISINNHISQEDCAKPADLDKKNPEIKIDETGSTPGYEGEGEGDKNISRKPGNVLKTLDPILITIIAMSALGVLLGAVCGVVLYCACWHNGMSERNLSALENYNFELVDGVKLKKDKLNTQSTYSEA

RPARPAR (positive control peptide)
binding to Neuropilin-1 (Neuropilin-1): bind to Neuropilin-1

[Amino acid sequence of SL8 (SIINFEKL; SEQ ID NO: 40)]-[VSYKAIR; SEQ ID NO: 1] (SIINFEKLVSYKAIR; SL8 C-terminus; Amino acid sequence of motif sequence) [SL8-FL4, fusion peptide of SL8 and FL4]
induction of antigen-specific CD8+ CTLs (tetramer assay, regional lymph nodes) [1]: strong induction | tumor regression effects (EG7 cells; 50 μg as SL8 with 50 μg CpG oligodeoxynucleotide subcutaneously into the ears, compared with physiological saline): very strong tumor regression effects | cure of tumor bearing mice (EG7 cells; co-administered with CpG oligodeoxynucleotide): completely cured mice were observed | induction of antigen-specific CD8+ CTLs in lung tissues [2]: strongly induced | induction of antigen-specific CD8+ CTLs in regional lymph nodes in the lungs [2]: strongly induced | induction of antigen-specific CD8+ CTLs in the spleen [2]: strongly induced | induction of antigen-specific CD8+ CTLs in regional lymph nodes in the lungs ([3]; pulmonary administration Day 0 and Day 7 with 10 μg CpG oligodeoxynucleotide): strong induction | induction of antigen-specific CD8+ CTLs in the spleen ([3]; subcutaneous administration Day 0 and Day 7 with 10 μg CpG oligodeoxynucleotide): Strong induction

[Partial sequence of Kras containing G12D mutation (LVVVGADGV; SEQ ID NO: 42)]-[VSYKAIR; SEQ ID NO: 1] (LVVVGADGVVSYKAIR; G12D-derived peptide; Amino acid sequence of motif sequence) [G12D-FL4, fusion peptide of G12D-derived peptide and FL4]
induction of antigen-specific CD8+ CTLs (IFN-γ production ability) [4]: very strong induction

LVVVGADGV [G12D-derived peptide, partial peptide of Kras containing G12D mutation, reference compound]
induction of antigen-specific CD8+ CTLs (IFN-γ production ability) [4]: no induction
